Experimental data reported in patent US20220008391A1, “NOVEL COMPOUNDS FOR CONTROLLING ARTHROPODS” (Bayer Animal Health GmbH, priority 2018, published 2022).
Values after ≈ are worked out from the molar mass of the structure shown.

Experiments:
[1] = Measurement of solubility in buffer at pH 6.5; assay type: physicochemical; details: aqueous buffer, kinetic from dmso stock; PBS buffer pH 6.5, shaken 24h at rt, LC-MSMS; read-out: Solubility of example compounds at pH 6.5
Procedure, shortened: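 Compound from a 50 g/L DMSO stock was diluted into PBS pH 6.5 and shaken 24 h at room temperature, then centrifuged at 42000 rpm for 30 min. The supernatant was diluted and quantified by LC-MS/MS against a four-point calibration of 1.2-600 ng/ml.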

Ctenocephalides felis = assay: Antiparasitic activity after administration to rats, fleas; assay type: in vivo
Method: (§1) Measurement of the Antiparasitic Activity after Administration of a Prodrug to Rats Compounds were dissolved in the appropriate volume of glycerol formal (p.a.) just before application to the animals (dose volume was adjusted to 0.03 mL/kg bodyweight). 5 rats per group were either injected intraperitoneally or subcutaneously. Rats were infested with 30 Dermacentor variabilis nymphs on study days −2, 7, 14, 21, 28, 35 and 30 adult Ctenocephalides fleas on study days −1, 8, 15, 22, 29, 36. […] Percent efficacy was calculated as arithmetic mean parasite numbers as life attached tick numbers and live flea numbers of the respective study group in comparison to parasite counts on a placebo-treated control group. Infestation of groups with less than 75% efficacy on two consecutive counting occasions will terminated for the respective parasite.

Dermacentor variabilis [2] = assay: Antiparasitic activity after administration to dogs, D. variabilis ticks; assay type: in vivo; details: sc
Method: Measurement of the Antiparasitic Activity after Administration of a Prodrug to Dogs
Compounds were dissolved in the appropriate volume of glycerol formal (p.a.) just before application to the animals (dose volume was adjusted to 0.1 ml/kg bodyweight). Dogs were injected intravenously respective subcutaneously (see table 8 for details).
Dogs were infested with ectoparasites according to table on study 1 day prior to counting for fleas, 2 days prior to counting for RS, IR, DV ticks and 3 days prior to counting for AA ticks. For this purpose, dogs were placed in an individually labeled box with grid windows. The ticks were released onto the back of the dogs and were allowed to disperse and move into the hair without disturbance. The dog remained in the box for approximately 120 minutes with the lid closed and the light switched off in the room. For flea infestations, flea containers were opened in the animal's cage and fleas were applied on the dog's back between the shoulders.
Tick counts including removal of I. ricinus, R. sanguineus and D. variabilis were conducted 48(±4) hours after the infestation. Tick counts including removal of A. americanum were conducted 72(±4) hours after the infestation. Flea counts were conducted 24(±4) hours after the infestation.
On each parasite assessment day percent efficacy was calculated as arithmetic mean parasite numbers as life attached and live free tick numbers and live flea numbers of the respective study group in comparison to parasite counts on a placebo non-treated control group.

Dermacentor variabilis [3] = assay: Antiparasitic activity after administration to rats, tick nymphs; assay type: in vivo
Method: as §1

[4] = Degradation of prodrugs and release of parent compound in dog plasma; assay type: in vitro ADME
Method: Measurement of Release of Parent Compound in Dog Plasma 1 mg of the test compound was dissolved in 0.5 mL acetonitrile/dimethylsulfoxide 9:1. For complete dissolution the HPLC vial was shaken and treated with ultrasound. 20 μl of this solution were added to 1 mL of dog plasma (Beagle) under vortexing at a temperature of 37° C. Aliquots (100 μL each) were taken at 0.17, 0.5, 1, 1.5, 2 and 4 hours. Each aliquot was transferred to a vial containing 300 μL of acetonitrile/citric acid buffer pH 3 80:20. These solutions were centrifuged at 5000 rpm for 10 minutes. The supernatant was analysed by HPLC (Method 8) to determine the amount of the test compound. In addition, the reaction mixture was analysed by method 9 (HPLC-MS) at the final timepoint. Both decrease of the prodrug concentration and increase of parent compound concentration were monitored. All data is given as percent area of the prodrug at t0.

## N#CC1(N(COC(=O)OCCOC(=O)/C=C/C(=O)O)C(=O)c2cc(-c3cnn(-c4c(Cl)cc(C(F)(C(F)(F)F)C(F)(F)F)cc4OC(F)(F)F)c3)ccc2Cl)CC1 [Example 1, (11E)-1-(2-Chloro-5-{1-[2-chloro-4-(1,1,1,2,3,3,3-heptafluoropropan-2-yl)-6-(trifluoromethoxy)phenyl]-1H-pyrazol-4-yl}phenyl)-2-(1-cyanocyclopropyl)-1,5,10-trioxo-4,6,9-trioxa-2-azatridec-11-en-13-oic Acid]
[1]
  solubility at 24 h: 5 µg/mL (≈ 5.78 µM)
Ctenocephalides felis; SC
  flea efficacy on rats compared with the parent drug also injected subcutaneously: superior
Ctenocephalides felis; sc, CF A, study day 42, 13.33-13.98 mg/kg prodrugs
  Efficacy SD42: 79%
Dermacentor variabilis [2]
  duration of efficacy against D. variabilis as least sensitive species: five
Dermacentor variabilis [2]; 13.33 mg/kg (=10 parent), DV, study 4, month 4
  % Efficacy in study month 4: 96%
Dermacentor variabilis [2]; 13.33 mg/kg (=10 parent), DV, study 4, month 5
  % Efficacy in study month 5: 100%
Dermacentor variabilis [2]; 13.33 mg/kg (=10 parent), DV, study 4, month 6
  % Efficacy in study month 6: 77%
Dermacentor variabilis [3]; SC
  tick efficacy on rats compared with the parent drug also injected subcutaneously: superior
Dermacentor variabilis [3]; sc, DV N, study day 42, 13.33-13.98 mg/kg prodrugs
  Efficacy SD42: 81%
[4]; Beagle, dog, 4 h, 39.2 µg/mL
  % Parent Drug 4 h: 32%
[4]; dog plasma (Beagle), 37° C., 0.17 h, percent area of prodrug at t0
  recovery at 0.17 h, 39 µg/mL: 100%
[4]; dog plasma (Beagle), 37° C., 0.5 h
  recovery at 0.5 h, 39 µg/mL: 100%
[4]; dog plasma (Beagle), 37° C., 1 h
  recovery at 1 h, 39 µg/mL: 100%
[4]; dog plasma (Beagle), 37° C., 1.5 h
  recovery at 1.5 h, 39 µg/mL: 88%
[4]; dog plasma (Beagle), 37° C., 2 h
  recovery at 2 h, 39 µg/mL: 82%
[4]; dog plasma (Beagle), 37° C., 4 h
  recovery at 4 h, 39 µg/mL: 54%
